# Assay results: US10076576B2, “Minimally toxic prodrugs” (priority 2012, dated 2018)
# Where “and” joins values, the source holds several entries; their conditions need not be identical. Identical values can stand only once. Like-named read-outs stand apart in the source and are kept apart here.
# Tests used:
# in vivo [1] = settings: female, OF-1, mouse, iv, 86.2 umol/kg
# Experimental: Time evolution of plasma concentration (A, B) and of cardiac tissue concentration (C, D) of Doxorubicin or PhAc-ALGP-Dox and its metabolites after i.v. bolus injection to OF-1 female wild type mice at the dose of 86.2 μmol/kg. Results represent the mean concentration±SD (n=3).
# Pharmacokinetic tissue distribution studies were performed using OF-1 mice. […] At different time points after drug administration (5 min, 30 min, 1 h, 4 h, 7 h, 16 h and 24 h) 3 mice per group were sacrificed by cervical dislocation and blood and heart tissue were collected. Hearts were incised and rinsed carefully in phosphate buffer saline (to eliminate blood in the cardiac cavities), dried on paper and frozen in liquid nitrogen. They were stored until analysis. Blood samples were centrifuged (10 min, 2000 g, 4° C.) to separate the plasma fraction, which was stored for analysis. The hearts were homogenized with an Ultraturrax homogenizer in 1.5 mL water. The protein concentration was measured using the microBCA protein assay (Pierce). The drug tissue quantification was made by HPLC after extraction: 150 μL of acetonitrile was added to the 50 μL samples. Samples were vortexed and centrifuged for 10 min at 13 000 rpm at room temperature. Supernatant was collected. Samples were buffered by addition of 200 mM formiate buffer pH 4.5 (1 V sample supernatant+3 V buffer) before HPLC analysis (fluo detection ex=235 nm em=560 nm).
# [2] = tested on: MX-1 mammary carcinoma human xenografts; experiment: Efficacy after repeated ip injections (2Q1D5×2W), MX-1 xenograft; type: in vivo, NMRI nude mice; settings: for TGI [% (day)]: day 35; for body weight loss (in words): Doxorubicin 1 μmol/kg (MTD), PhAc-ALGP-Dox 50 μmol/kg, ip 2Q1D5×2W
# Experimental: FIG. 10. […] Drugs or controls were administered by the i.p. route twice a day for five consecutive days (arrows). Treatment was repeated with 72 hours interval between two cycles.
# [3] = type: in vivo, CD1 mice
# Experimental: FIG. 12. Evaluation of PhAc-ALGP-Dox leucopenic effect in comparison with Doxorubicin. CD1 mice received twice daily intraperitoneal injections of PhAc-ALGP-Dox 35 μmol/kg (●) or of Doxorubicin 3.5 μmol/kg (▪) for five consecutive days. The mice body weight evolution was recorded (A). Blood was collected from the tail vein in heparinised Microvettes tubes (Starsted) at day 4, 11 and 15 after treatment initiation. Peripheral white blood cells (WBC) were counted using the SCILvet abc hematologic analyzer (B). The increase or decrease in WBC is expressed as a percentage of WBC on day 0 (100%) for each mouse. The curves show evolution of the mean percentages.
# The leucopenic effects of PhAc-ALGP-Dox (35 μmol/kg ip) and of Doxorubicin (3.5 μmol/kg ip) were compared in two independent experiments. CD1 mice received two daily intraperitoneal injections of drugs for five consecutive days (total 10 injections/mouse; 2×5 animals per group). The mice body weight evolution was recorded. Blood was collected from the tail vein in EDTA-coated Microvettes tubes (Starsted) at day 4, 11 and 15 after treatment initiation. White blood cells (WBC) were counted using the SCILvet abc hematologic analyzer. The increase or decrease in WBC was expressed as a percentage of WBC on day 0 (100%) for each mouse.
# [4] = tested on: mouse embryonic fibroblasts (MEF); experiment: In vitro cytotoxicity on control fibroblasts (neutral red uptake); type: cell-based; settings: 48 h
# Experimental: FIG. 5. In vitro cellular toxicity of PhAc-ALGP-Dox and Doxorubicin on Cor.At® cells (mouse embryonic stem cell derived cardiomyocytes). As non-specific control, the test was also performed on inactivated mouse embryonic fibroblasts (MEF). Cells were cultured for 48 h in the presence of drugs and a neutral red uptake test was performed to determine cell viability. Results represent the cytotoxicity curves. The IC50 values were calculated from the cytotoxicity curves using the Prism GraphPad software 5.0.
# The in vitro cardiotoxicity test was carried out in a relevant and predictive in vitro model for cardiac safety screening in early lead optimization using mouse embryonic stem cell derived cardiomyocytes (Cor.At®, Axiogenesis (Germany)). Cor.At® cardiomyocytes provide a standardized, homogenous and reproducible cell system for the in vitro classification of a compound's cardio-cytotoxic potential. After incubation with test compounds, the neutral red uptake test was used to determine effects which directly affect the viability and integrity of cardiac cells when compared to a non-specific reference cell type, e.g. mouse fibroblasts (MEF).
# in vivo [5] = settings: female, OF-1, mouse, ip, 92 umol/kg
# Experimental: Time evolution of blood concentration of PhAc-ALGP-Dox and its metabolites (A) or of Doxorubicin (B) after intraperitoneal injection to OF-1 female wild type mice at the equimolar dose of 92 μmol/kg. Results represent the mean concentration±SD (n=3).
# Pharmacokinetic tissue distribution studies were performed using OF-1 mice. Doxorubicin and PhAc-ALGP-Dox were dissolved in saline at the dose of 9.2 mM and administered to mice by intraperitoneal route (10 μL/g, 6 mice per group). At different time points after drug administration (5 min, 30 min, 1 h, 4 h, and 24 h), blood samples were collected from the lateral tail vein of three mice using EDTA-coated microtubes (Starsted). After 24 h, 3 mice per group were sacrificed by cervical dislocation and hearts were collected. They were incised and rinsed carefully in phosphate buffer saline (to eliminate blood in the cardiac cavities), dried on paper and frozen in liquid nitrogen. They were stored until analysis. The hearts were homogenized with an Ultraturrax homogenizer in 1.5 mL water. The protein concentration was measured using the microBCA protein assay (Pierce). The drug tissue quantification was made by HPLC after extraction: 150 μL of acetonitrile was added to the 50 μL samples. Samples were vortexed and centrifuged for 10 min at 13 000 rpm at room temperature. Supernatant was collected. Samples were buffered by addition of 200 mM formiate buffer pH 4.5 (1 V sample supernatant+3 V buffer) before HPLC analysis (fluo detection ex=235 nm em=560 nm).
# [6] = Experimental: FIG. 7. Toxicity study of PhAc-ALGP-Dox after single and multiple intraperitoneal (ip) injections in OF-1 mice. Animals were treated with PhAc-ALGP-Dox with different treatment schedules: at 56 μmol/kg 5× (Q1D5 -*-); at 28 μmol/kg 10× (2Q1D5 -▪-); at 560 μmol/kg 1× (-□-); at 112 μmol/kg 5× (Q1D5 -▴-); at 56 μmol/kg 10× (2Q1D5 -×-).
# PhAc-ALGP-Dox was dissolved in saline and administered by single or multiple intraperitoneal (ip) injections […] of OF-1 mice (10 μl/g). PhAc-ALGP-Dox was administered at similar cumulative doses of 280 and 560 μmol/kg following different injections schedules: single ip injection; 5 consecutive daily ip injections at 56 and 112 μmol/kg or twice a day for five consecutive days at the doses of 28 and 56 μmol/kg. The in vivo toxicity was evaluated by monitoring the body weight.
# [7] = tested on: orthotopic HCT116 human colon tumors; experiment: Orthotopic HCT116 colon carcinoma tumor model; type: in vivo, SCID mice
# Experimental: (§1) FIG. 14. Evaluation of the antitumor effect of PhAc-ALGP-dox in SCID mice bearing orthotopic HCT116 human colon tumors. SCID mice were injected orthotopically (in the caecum) with human HCT116 colon tumor cells. One group was treated with saline while groups 2 and 3 received 10 intraperitoneal injections (2Q1D5) of 35 and 50 μmol/kg of PhAc-ALGP-doxorubicin. Primary tumor weights were recorded on day 34 post cell inoculation.
# as §1, with “15.” for “14.”, “antimetastatic” for “antitumor”, “effect (in liver)” for “effect”, “Liver metastases” for “Primary tumor weights”
# HCT116 cells were subcutaneously injected into SCID mice. Once xenografts were established, they were excised and orthotopically implanted into the ceacum of other female γ-irradiated SCID mice using microsurgical techniques. On day 12 after the cancer cells injection, the mice were randomized in four groups of 16. […] On day 34 after injection into the caecum of colonic cancer cells the animals were sacrificed, the number of metastases was counted macroscopically and the primary tumors weighted.
compound,measurement,setting,value
"COc1cccc2c1C(=O)c1c(O)c3c(c(O)c1C2=O)C[C@@](O)(C(=O)CO)C[C@@H]3O[C@H]1C[C@H](N)[C@H](O)[C@H](C)O1 [Doxorubicin, reference compound]",AUC,in vivo [1],63 µM·h
same,TGI [% (day)],[2]; 1 μmol/kg ip 2Q1D5×2W,"44% and 44 (35), n = 3%"
same,toxicity (in words),[2]; 1.5 μmol/Kg ip 2Q1D5×2W,very toxic
same,body weight loss (in words),[2],No significant body weight loss
same,mortality,"[3]; 3.5 μmol/kg ip 2Q1D5, 2×5 animals",one mouse was found dead at day 11 as well as 3 mice at day 15
same,viability of MEF,[4]; 0.2 μg/ml,89%
same,toxic effect on MEF (in words),[4]; 20 μg/ml and 2 μg/ml,severe toxic effect
same,AUC,in vivo [5],70.3 µM·h
same,maximum tolerated dose,"[6]; OF-1, mouse, in vivo, ip",3 µmol/kg
same,mortality,"[7]; 2 μmol/kg ip 2Q1D5, SCID mice",all animals died within 10 days
"COc1cccc2c1C(=O)c1c(O)c3c(c(O)c1C2=O)CC(O)(C(=O)CO)CC3OC1CC(NC(=O)C2CCCN2C(=O)CNC(=O)C(CC(C)C)NC(=O)C(C)NC(=O)CP(=O)(O)O)C(O)C(C)O1 (stereo not shown) [PhAc-ALGP-Dox, PhAc-ALGP-doxorubicin]",AUC,in vivo [1],97 µM·h
same,TGI [% (day)],[2]; 50 μmol/kg ip 2Q1D5×2W,"76% and 76 (35), n = 4%"
same,body weight loss (in words),[2],No significant body weight loss
same,leucopenic effect and body weight loss (in words),[3]; 35 μmol/kg ip 2Q1D5,No leucopenic effect and body weight loss
same,IC50 on MEF,[4]; up to 20 μg/ml,no IC50 is reached
same,AUC,in vivo [5],44.2 µM·h
same,body weight loss (in words),"[6]; 56 μmol/kg, 10 ip injections (twice a day for five consecutive days)",No body weight loss
same,maximum body weight loss,"[6]; 112 μmol/kg, five consecutive daily ip injections, day 11",22.5%
same,toxicity (in words),[6]; 560 μmol/kg single ip injection,very toxic
same,body weight lost,"[6]; 560 μmol/kg single ip injection, in one week",25%
same,body weight loss (in words),"[6]; cumulative dose 280 μmol/kg ip, whatever the injection schedule",no body weight loss
same,times less toxic than doxorubicin,[6]; ip twice a day for five consecutive days,about 15 times
same,number of hepatic metastases,"[7]; 30 μmol/kg, day 34",24
same,primary tumor weight,"[7]; 30 μmol/kg, day 34",0.69 g
same,mice surviving 34 days,"[7]; 35 μmol/kg ip 2Q1D5, groups of 16",12 mice
same,mice surviving 34 days,"[7]; 50 μmol/kg ip 2Q1D5, groups of 16",9 mice
same,mean number of hepatic metastases,"[7]; 50 μmol/kg, day 34",1.78
same,primary tumor weight,"[7]; 50 μmol/kg, day 34",0.44 g
